This passage reports inhibition results from article PMC4148593, “Activation of spleen cells by ArtinM may account for its immunomodulatory properties” (Cell and Tissue Research, 2014).

The assay concerns the target T1, rArtinM (recombinant ArtinM) (Artocarpus heterophyllus, UniProt Q2VPW4).
T1 construct: recombinant, expressed in E. coli BL21; monomer
T1 sequence (Q2VPW4 2-150): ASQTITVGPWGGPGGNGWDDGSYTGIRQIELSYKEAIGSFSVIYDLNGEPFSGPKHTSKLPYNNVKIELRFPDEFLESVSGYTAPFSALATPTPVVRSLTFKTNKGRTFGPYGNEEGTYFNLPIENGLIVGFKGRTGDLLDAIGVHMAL
As to the kind of experiment: MTT assay, inhibition of lectin-induced mitochondrial activity of murine spleen cells. It is filed as cell-based. To be noted: read-out: % inhibition at 50 mM.

Turning to `OC[C@H]1OC(O)[C@@H](O)[C@@H](O)[C@@H]1O` (stereo partly drawn) [D-mannose], the inhibition at 50000 µM worked out at 80%.
